“And” between values parts separate entries of the source, which are not always exact repeats. Identical values can stand only once. The source made the active and inactive calls. Cut-off read from the data, not from the text of the source, for most assays here: actives have a measured EC50 and inactives only a lower limit.
Tests used:
[1] = inhibitors of intracellular T. cruzi replication, confirmation, NIH3T3 host cells, beta-gal luminescence (AID 2044); type: functional, cell-based;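 note: intracellular parasites grown in NIH/3T3 mouse fibroblasts as host cells; luminescent beta-galactosidase reporter signal from transgenic T. cruzi replicating inside host cells; inhibitors lower the luminescence signal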
[2] = cytotoxicity toward NIH3T3 fibroblasts, dose response, counter-screen, cell-based, ATP luminescence, mouse fibroblasts (AID 2010); type: functional;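 note: cells exposed to compound for about 90 hours before reading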
[3] = tested on: Streptococcus sp. 'group A'; experiment: growth inhibition of control SK(-) GAS strain, dose response, counter-screen for streptokinase expression inhibitor project, luminescence, kanamycin, BacTiterGlo, confirmation (AID 1900); type: functional, organism-based
Streptococcus = experiment: Group A Streptococcus viability loss, dose response, counter-screen for streptokinase expression inhibitor project, luminescence, BacTiterGlo (AID 1915); type: functional, organism-based;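 note: potency for reduction of bacterial viability or growth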
Streptokinase A = target: T1, Streptokinase A (Streptococcus pyogenes serotype M1, UniProt P10520); experiment: S. pyogenes streptokinase expression inhibitors, potency, dose response, plasminogen activation absorbance, OD405 (AID 1914); type: functional, Streptococcus pyogenes M1 GAS;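 note: secreted streptokinase activity via plasminogen activation per viability signal from cell pellet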
T1 sequence (P10520 whole entry): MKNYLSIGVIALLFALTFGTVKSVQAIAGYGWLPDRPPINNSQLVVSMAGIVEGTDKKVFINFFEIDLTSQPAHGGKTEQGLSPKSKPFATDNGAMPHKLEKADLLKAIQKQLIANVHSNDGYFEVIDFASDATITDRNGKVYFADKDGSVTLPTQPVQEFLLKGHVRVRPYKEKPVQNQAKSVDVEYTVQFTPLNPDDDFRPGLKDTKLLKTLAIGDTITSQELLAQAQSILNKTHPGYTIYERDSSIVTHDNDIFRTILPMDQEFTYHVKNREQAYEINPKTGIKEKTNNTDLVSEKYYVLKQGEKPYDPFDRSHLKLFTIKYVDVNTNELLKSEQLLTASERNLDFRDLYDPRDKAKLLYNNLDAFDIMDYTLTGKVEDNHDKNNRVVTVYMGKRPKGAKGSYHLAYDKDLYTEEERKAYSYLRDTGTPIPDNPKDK

Cytochrome P450 3A4 = Cytochrome P450 3A4 (Homo sapiens, UniProt P08684);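 note: CYP3A4 tested as one member of a cytochrome P450 panel screen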
Chain of Cytochrome P450 3A4 (P08684 whole entry): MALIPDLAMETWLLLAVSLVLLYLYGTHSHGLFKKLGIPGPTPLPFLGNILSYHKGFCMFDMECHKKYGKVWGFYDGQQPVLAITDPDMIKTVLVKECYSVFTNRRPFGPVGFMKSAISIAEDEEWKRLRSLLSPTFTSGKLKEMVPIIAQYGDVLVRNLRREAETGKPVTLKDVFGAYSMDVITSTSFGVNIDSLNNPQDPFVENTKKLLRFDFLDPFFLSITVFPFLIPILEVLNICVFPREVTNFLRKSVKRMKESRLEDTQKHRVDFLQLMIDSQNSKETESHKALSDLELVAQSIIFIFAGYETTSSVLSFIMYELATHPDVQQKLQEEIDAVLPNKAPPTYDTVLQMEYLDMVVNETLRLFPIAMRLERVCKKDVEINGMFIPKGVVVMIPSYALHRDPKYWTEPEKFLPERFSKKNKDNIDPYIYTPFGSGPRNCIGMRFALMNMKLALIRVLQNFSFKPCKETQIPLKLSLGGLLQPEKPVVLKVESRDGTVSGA

[4] = target: T2, Heat shock factor protein 1 (Mus musculus, UniProt P38532); experiment: inhibition of MG132-induced HSE-luciferase signal, confirmation, cell-based, NIH3T3, luminescence, dose retest (AID 2382); type: functional;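 note: NIH3T3 fibroblasts with HSF1-driven luciferase reporter stressed by proteasome inhibitor MG132; luminescence from HSF1-driven luciferase expression after 8 hours of MG132 stress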
T2 sequence (P38532 whole entry): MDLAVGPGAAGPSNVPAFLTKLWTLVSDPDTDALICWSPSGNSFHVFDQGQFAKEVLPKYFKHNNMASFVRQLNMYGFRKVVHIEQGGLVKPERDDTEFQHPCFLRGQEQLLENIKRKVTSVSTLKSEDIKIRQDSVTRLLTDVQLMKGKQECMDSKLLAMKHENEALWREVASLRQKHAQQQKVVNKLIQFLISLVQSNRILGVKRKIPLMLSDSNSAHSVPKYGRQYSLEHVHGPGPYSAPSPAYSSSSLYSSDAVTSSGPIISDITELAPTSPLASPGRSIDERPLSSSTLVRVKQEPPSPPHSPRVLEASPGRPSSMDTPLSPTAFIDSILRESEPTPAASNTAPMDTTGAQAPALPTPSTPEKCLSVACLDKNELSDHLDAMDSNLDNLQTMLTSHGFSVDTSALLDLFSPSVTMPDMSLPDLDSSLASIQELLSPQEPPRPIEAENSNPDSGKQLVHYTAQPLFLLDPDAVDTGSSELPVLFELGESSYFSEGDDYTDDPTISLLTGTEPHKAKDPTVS

## Cc1nc2cc([N+](=O)[O-])ccc2c(=O)n1-c1ccccc1[N+](=O)[O-]
[1]
  EC50: 1.91 µM (active)
[2]
  EC50: 19.1 µM (active)

## Sc1nc(SCc2ccccc2)nc2ccccc12
[3]
  EC50: 4.43 µM (active)
Streptococcus
  EC50: 64.9 µM (active)

## COC(=O)c1ccc(CSc2cc(C)c3cc(C)cc(C)c3n2)o1
Streptokinase A
  EC50: 12.6 µM (active)
[3]
  EC50: 34.2 µM (active)
Streptococcus
  EC50: > 150 µM (not active)

## C[C@H](N)Cc1c[nH]c2ccc(OCc3cccs3)cc12
Cytochrome P450 3A4
  AC50: 15.8 µM (inconclusive) and 12.6 µM (inconclusive)

## Cc1noc(C)c1-c1nccc(N(C)C)n1
Cytochrome P450 3A4
  AC50: 31.6 µM (inconclusive)

## CCCCN(C)S(=O)(=O)c1ccc(C(=O)N(CCN(C)C)c2nc3ccc(C)cc3s2)cc1
[1]
  EC50: 0.182 µM (active)
[2]
  EC50: > 60 µM (inconclusive)

## COCCOC(=O)CC1=NC(=O)CS1
[4]
  EC50: > 195 µM (not active)

## COc1cccc(COC(=O)c2ccc3c(=O)n4c(nc3c2)CCC4)c1OC
Streptokinase A
  EC50: > 150 µM (not active)
[3]
  EC50: 10.8 µM (active)
Streptococcus
  EC50: 34.1 µM (active)

## Cc1cccc(NC(c2ccc(C)s2)c2ccc3ccc(C)nc3c2O)n1 (stereo not drawn)
Streptokinase A
  EC50: 2.96 µM (active)
[3]
  EC50: 2.83 µM (active)
Streptococcus
  EC50: 9.05 µM (active)

## CCCCCCCc1nn2c(O)cc(=O)nc2s1
Streptokinase A
  EC50: > 150 µM (not active)
[3]
  EC50: 10.9 µM (active)
Streptococcus
  EC50: > 150 µM (not active)

## C=CCn1c(O)c(N=NC(=S)Nc2ccc(OC)c(Cl)c2)c2ccccc21
[1]
  EC50: 0.586 µM (active)
[2]
  EC50: 3.88 µM (active)

## C=CCn1c(C)cc(C(=O)CSc2nnc(NC(C)C)s2)c1C
[4]
  EC50: > 195 µM (not active)

## O=C(CSc1nnc(NC(=O)c2cccc(Cl)c2)s1)NCC1CCCO1 (stereo not drawn)
Streptokinase A
  EC50: > 150 µM (not active)
[3]
  EC50: > 150 µM (not active)
Streptococcus
  EC50: > 150 µM (not active)

## COc1ccc(-n2ncc3c(NCCCN4CCOCC4)ncnc32)cc1
[4]
  EC50: 1.52 µM (active)

## Cc1c2c(n3c(nc4ccccc43)c1C#N)N(CCCN(C)C)CC2
[1]
  EC50: 0.242 µM (active)
[2]
  EC50: > 60 µM (not active)

## O=C(c1cc(C(F)(F)F)cc(C(F)(F)F)c1)N1CCC[C@@]2(CCN(c3ccccc3)C2)C1
Cytochrome P450 3A4
  AC50: 3.16 µM (inconclusive)

## Cc1cccc(CN2CCCC(C(=O)N3CCc4ccccc4C3)C2)c1 (stereo not drawn)
[1]
  EC50: 0.214 µM (active)
[2]
  EC50: > 60 µM (not active)

## O=C1[C@H]2[C@H]3[C@H](O)[C@H](O)C/C(=N/OC[C@@H](O)COCc4ccco4)[C@H]3CC[C@@H]2C(=O)N1c1cccc(Oc2ccccc2)c1
Cytochrome P450 3A4
  AC50: 3.16 µM (inconclusive)

## Cc1ccc(CN2C(=O)c3ccccc3NC2c2cc(Br)ccc2O)cc1 (stereo not drawn)
Streptokinase A
  EC50: 5 µM (active)
[3]
  EC50: 5.08 µM (active)
Streptococcus
  EC50: 8.52 µM (active)

## CCCCC(=O)Nc1cccc(NC(=O)c2cccc(Br)c2)c1
[4]
  EC50: > 195 µM (not active)

## CN1CCN(c2ncc3nc(-c4cc(F)cc(F)c4)c(=O)n(C4CC4)c3n2)CC1
Cytochrome P450 3A4
  AC50: 39.8 µM (inconclusive)

## Cc1ccc(-c2nn(-c3ccccc3)cc2CN(C)C(=O)CCC(=O)O)cc1C
[4]
  EC50: > 195 µM (not active)

## COc1ccc(N(C)C(=O)c2oc(=O)c3ccccc3c2-c2ccccc2)c(OC)c1
[4]
  EC50: > 195 µM (not active)

## CCC1COCCS(=O)(=O)N1Cc1ccccc1C (stereo not drawn)
[4]
  EC50: > 195 µM (not active)

## OCCCCNCc1ccc(OCc2ccc(Cl)cc2)cc1
[1]
  EC50: 2.39 µM (active)
[2]
  EC50: 10.6 µM (active)

## Cc1cc(C(C)(C)C)ccc1OCCOCCN1CCCC1
[1]
  EC50: 0.913 µM (active)
[2]
  EC50: > 60 µM (inconclusive)

## N#CC1=C(N)SC(N)=C(C#N)C1c1c(Cl)cccc1Cl
Streptokinase A
  EC50: 93.5 µM (active)
[3]
  EC50: 6.67 µM (active)
Streptococcus
  EC50: > 150 µM (not active)

## CNc1ccnc(-c2ccccc2OC)n1
Cytochrome P450 3A4
  AC50: 31.6 µM (inconclusive)

## Cc1cccc(N2CCN(C(=O)c3ccc4nc(N5CCCCC5)sc4c3)CC2)c1C
Streptokinase A
  EC50: 14.6 µM (active)
[3]
  EC50: 13.8 µM (active)
Streptococcus
  EC50: 140 µM (active)

## Cc1ccccc1C(=O)OC1CCN(C)CC1
[1]
  EC50: 0.115 µM (active)
[2]
  EC50: 42.4 µM (active)

## CC(=O)[C@@H]1CC[C@@H]2[C@@H]3CC=C4C[C@H](OS(=O)(=O)O)CC[C@@]4(C)[C@H]3CC[C@]21C
Cytochrome P450 3A4
  AC50: 12.6 µM (inconclusive)

## CCn1ncc(CN2CCCC(CNC(=O)c3ccc(F)cc3)C2)c1C (stereo not drawn)
[1]
  EC50: 0.106 µM (active)
[2]
  EC50: > 60 µM (not active)

## CO[C@H]1COC(=O)CCC[C@@H](C)[C@H](OC)COC(=O)[C@H]2CCCN2C(=O)C/C=C\[C@@H]1C
Cytochrome P450 3A4
  AC50: 5.01 µM (inconclusive)

## CC(C)(C)NC(=O)CSc1nc2ccc(Nc3nc(N4CCOCC4)nc(N4CCOCC4)n3)cc2s1
[1]
  EC50: 0.832 µM (active)
[2]
  EC50: > 30 µM (not active)

## CCOC(=O)c1[nH]c(C)c(C(=O)N2CCC3(CC2)OCCO3)c1C
Cytochrome P450 3A4
  AC50: 22.4 µM (inconclusive)

## Cc1cc(C)c2nc(O)c(CN(Cc3ccccc3)C(S)=NCCCN(C)C)cc2c1
[1]
  EC50: 2.19 µM (active)
[2]
  EC50: > 60 µM (not active)

## CC(=O)OC[C@@H]1O[C@H](C/C=N\O[C@@H](C)CN2CCCc3nc(C)c(C)cc32)C=C[C@@H]1OC(C)=O
Cytochrome P450 3A4
  AC50: 3.98 µM (inconclusive)

## CCOC(=O)c1c(-c2ccccc2)c2cc(OC)ccc2n1CCCN(C)C
[1]
  EC50: 0.653 µM (active)
[2]
  EC50: 16.3 µM (active)

## CCC(C)n1c(SC(C)C#N)nc2ccccc2c1=O (stereo not drawn)
[4]
  EC50: > 195 µM (not active)

## COC(=O)C(Cc1cnc(Cl)s1)(C(=O)OC)c1ccc([N+](=O)[O-])cc1[N+](=O)[O-]
[1]
  EC50: 1.2 µM (active)
[2]
  EC50: > 60 µM (not active)

## Cc1nn(-c2ccccc2)c(N)c1C(O)(CSc1nccn1C)C(F)(F)F (stereo not drawn)
[4]
  EC50: > 195 µM (not active)

## O=C(c1c(F)cccc1F)N1CCN(c2ccccc2F)CC1
[4]
  EC50: > 195 µM (not active)

## COc1ccc(S(=O)(=O)N2CCC(NC(=O)C(Cc3cccc(OC)c3OC)NC(C)=O)CC2)cc1 (stereo not drawn)
[4]
  EC50: > 195 µM (not active)

## Cc1ccsc1C(=O)OCC(=O)c1cc2ccccc2o1
Streptokinase A
  EC50: > 150 µM (not active)
[3]
  EC50: > 150 µM (not active)
Streptococcus
  EC50: > 150 µM (not active)

## CCOc1ccc(CN2CCCC(CNC(=O)c3ccc(F)cc3)C2)cc1CO (stereo not drawn)
[1]
  EC50: 0.771 µM (active)
[2]
  EC50: > 30 µM (not active)

## Cc1ccccc1SCC(=O)Nc1cc(C(F)(F)F)ccc1N1CCOCC1
[1]
  EC50: 3.94 µM (active)
[2]
  EC50: > 60 µM (not active)

## CN(c1ccccc1)c1nc(N2CCCC2)nc(-n2ccnc2)n1
Streptokinase A
  EC50: 75.6 µM (active)
[3]
  EC50: 13.1 µM (active)
Streptococcus
  EC50: > 50 µM (not active)

## CN1CCC(OC(=O)c2cccc(F)c2)CC1
[1]
  EC50: 0.256 µM (active)
[2]
  EC50: > 30 µM (not active)

## CC1CCN(CCOCCOc2ccc(Cl)cc2Br)CC1
[1]
  EC50: 0.54 µM (active)
[2]
  EC50: 13.8 µM (active)

## O=C(N/N=C/c1cc([N+](=O)[O-])ccc1O)c1ccncc1
[4]
  EC50: 0.66 µM (active)

## Cc1[nH]c2ccccc2c1/C=N/Nc1ccccc1[N+](=O)[O-]
[1]
  EC50: 2.3 µM (active)
[2]
  EC50: > 60 µM (not active)

## CCOc1cc(/C=N/NC(=O)CN(CCc2ccccc2)S(=O)(=O)c2ccc(NC(C)=O)cc2)ccc1O
[4]
  EC50: > 195 µM (not active)

## CC(/N=C/C1=C(O)OC(C)(C)OC1=O)C(=O)O (stereo not drawn)
[2]
  EC50: > 60 µM (not active)

## CCOc1ccc(/C=N/Nc2cc(N3CCOCC3)nc(C)n2)c(O)c1
Streptokinase A
  EC50: > 150 µM (not active)
[3]
  EC50: > 150 µM (not active)
Streptococcus
  EC50: > 150 µM (not active)

## O=C(CSc1ccccn1)N/N=C/c1cc([N+](=O)[O-])ccc1O
[3]
  EC50: 1.01 µM (active)
Streptococcus
  EC50: 2.72 µM (active)

## CCCCCCCCCC(=O)N/N=C(\C)c1cccnc1
[1]
  EC50: 1.31 µM (active)
[2]
  EC50: > 60 µM (not active)

## COc1cccc(/C=N/NC(=O)c2nnn(-c3nonc3N)c2C(C)C)c1OCc1ccc(F)cc1
Streptokinase A
  EC50: 62.6 µM (active)
[3]
  EC50: 13 µM (active)
Streptococcus
  EC50: 43.1 µM (active)

## O=C(O)c1cc2cc(F)ccc2[nH]1 [5-FLUOROINDOLE-2-CARBOXYLIC ACID]
[4]
  EC50: > 195 µM (not active)

Source: ChEMBL document CHEMBL1201862, “PubChem BioAssay data set” (2004)
